The record followed here is patent US11718618B2, “Substituted pyrido[2,1-a]isoquinolines as VMAT2 inhibitors” (priority 2021, dated 2023).

The structures appear in SMILES notation.

human VMAT2, sequence (Q05940 whole entry): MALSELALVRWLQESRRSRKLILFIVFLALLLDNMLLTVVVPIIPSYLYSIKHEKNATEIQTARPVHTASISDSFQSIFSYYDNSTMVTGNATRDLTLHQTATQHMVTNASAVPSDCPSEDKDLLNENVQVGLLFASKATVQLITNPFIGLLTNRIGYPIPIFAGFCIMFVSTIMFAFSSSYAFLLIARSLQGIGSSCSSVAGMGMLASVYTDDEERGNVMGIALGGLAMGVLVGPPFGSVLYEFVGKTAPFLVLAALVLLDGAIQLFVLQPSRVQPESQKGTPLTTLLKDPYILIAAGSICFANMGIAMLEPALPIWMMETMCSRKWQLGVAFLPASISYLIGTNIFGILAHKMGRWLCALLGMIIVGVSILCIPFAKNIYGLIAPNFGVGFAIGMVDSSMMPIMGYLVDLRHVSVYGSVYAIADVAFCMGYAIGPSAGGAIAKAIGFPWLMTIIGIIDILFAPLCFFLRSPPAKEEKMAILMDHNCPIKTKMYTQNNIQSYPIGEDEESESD

The target of the experiment is human VMAT2 (Homo sapiens (Human), UniProt Q05940). In words: VMAT2 radioligand binding, 3H-dihydrotetrabenazine competition on human platelet homogenate. As to conditions: 10 nM 3H-dihydrotetrabenazine, human platelet homogenate, 25° C., 90 minutes; read-out: VMAT2 Ki. Here is the method:
Examples of techniques for determining the capability of a compound to inhibit VMAT2 are provided below. The procedure was adapted from that described previously (see, e.g., Near, (1986), Mol. Pharmacol. 30: 252-57; Teng, et al., J. Neurochem. 71, 258-65, 1998). Homogenates from human platelets were prepared by homogenization and then washed by centrifugation as described previously (see, e.g., Hoare et al., (2003) Peptides 24:1881-97).
The human VMAT2 Ki values for the compounds listed in Table 15A and Table 15B were determined using the following procedures. Compound dilution series in DMSO were generated from either powder stocks by hand, or from DMSO stocks using serial dilution on a Vantage (Hamilton), or direct dilution using an Echo 655 (Beckman). In a total volume of 0.145 to 0.150 mL in low-binding 96-well plates (Corning #3605), twelve concentrations of test compound were competed against 10 nM ^3H-dihydrotetrabenezine (American Radiolabeled Chemicals) on human platelet homogenate (30 μg membrane protein per well) in VMAT2 binding buffer (Dulbecco's phosphate buffered saline, 1 mM EDTA, pH 7.4). Following incubation at 25° C. for 90 minutes, bound radioligand was collected by rapid filtration onto either GF/B or GF/C glass fiber filters, pretreated with 0.100 polyethylenimine, using either a Unifilter-96 Harvester (PerkinElmer) or Microlab Star (Hamilton). Following harvesting the filter plates were washed with 0.8 mL VMAT2 binding buffer, and bound radioligand was quantified by scintillation counting using a Topcount NXT or Microplate Counter Microbeta (PerkinElmer).
Consider `COc1cc2c(cc1OCC1CN(C)C1)CCN1C[C@@H](CC(C)(C)C)[C@H](O)C[C@H]21` [Compound 4-37, (2R,3R,11bR)-3-(2,2-dimethylpropyl)-10-methoxy-9-[(1-methylazetidin-3-yl)methoxy]-1H,2H,3H,4H,6H,7H,11bH-pyrido[2,1-a]isoquinolin-2-ol], for which the Ki was > 10000 nM.

`COc1cc2c(cc1OC[C@H](O)CO)CCN1C[C@@H](CC(C)(C)C)[C@H](O)C[C@H]21` [Compound 4-83, (2R)-3-{[(2R,3R,11bR)-3-(2,2-dimethylpropyl)-2-hydroxy-10-methoxy-1H,2H,3H,4H,6H,7H,11bH-pyrido[2,1-a]isoquinolin-9-yl]oxy}propane-1,2-diol]: the Ki was determined as 207 nM.

Regarding `COc1cc2c(cc1OCS(=O)(=O)N(C)C)CCN1C[C@@H](CC(C)(C)C)[C@H](O)C[C@H]21` [Compound 4-86, 1-{[(2R,3R,11bR)-3-(2,2-dimethylpropyl)-2-hydroxy-10-methoxy-1H,2H,3H,4H,6H,7H,11bH-pyrido[2,1-a]isoquinolin-9-yl]oxy}-N,N-dimethylmethanesulfonamide], the inhibition constant Ki was found to be 287 nM.

Turning to `COc1cc2c(cc1OCC1(C(F)(F)F)CCCC1)CCN1C[C@@H](CC(C)(C)C)[C@H](O)C[C@H]21` [Compound 4-80, (2R,3R,11bR)-3-(2,2-dimethylpropyl)-10-methoxy-9-{[1-(trifluoromethyl)cyclo-pentyl]methoxy}-1H,2H,3H,4H,6H,7H,11bH-pyrido[2,1-a]isoquinolin-2-ol], the inhibition constant (Ki) is 133 nM.

Consider `COc1cc2c(cc1OCCCO)CCN1C[C@@H](CC(C)(C)C)[C@H](O)C[C@H]21` [Compound 4-89, (2R,3R,11bR)-3-(2,2-dimethylpropyl)-9-(3-hydroxypropoxy)-10-methoxy-1H,2H,3H,4H,6H,7H,11bH-pyrido[2,1-a]isoquinolin-2-ol], for which the Ki is 140 nM.

In the case of `COc1cc2c(cc1OCC(=O)N(C)CC(F)(F)F)CCN1C[C@@H](CC(C)(C)C)[C@H](O)C[C@H]21` [Compound 4-84, 2-{[(2R,3R,11bR)-3-(2,2-dimethylpropyl)-2-hydroxy-10-methoxy-1H,2H,3H,4H,6H,7H,11bH-pyrido[2,1-a]isoquinolin-9-yl]oxy}-N-methyl-N-(2,2,2-trifluoroethyl)acetamide], the Ki was 272 nM.

For the compound `COc1cc2c(cc1OCC1(S(C)(=O)=O)CC1)CCN1C[C@@H](CC(C)(C)C)[C@H](O)C[C@H]21` [Compound 4-96, (2R,3R,11bR)-3-(2,2-dimethylpropyl)-9-[(1-methanesulfonylcyclo-propyl)methoxy]-10-methoxy-1H,2H,3H,4H,6H,7H,11bH-pyrido[2,1-a]isoquinolin-2-ol], the Ki is > 10000 nM.

On to `COc1cc2c(cc1OC1CCN(CC(F)(F)F)C1=O)CCN1C[C@@H](CC(C)(C)C)[C@H](O)C[C@H]21` (stereo partly drawn) [Compound 4-87, 3-{[(2R,3R,11bR)-3-(2,2-dimethylpropyl)-2-hydroxy-10-methoxy-1H,2H,3H,4H,6H,7H,11bH-pyrido[2,1-a]isoquinolin-9-yl]oxy}-1-(2,2,2-trifluoroethyl)pyrrolidin-2-one], for which the inhibition constant (Ki) stood at 650 nM.

Take `COc1cc2c(cc1OCC(C)(F)F)CCN1C[C@H](CC(C)(C)C)[C@@H](O)C[C@@H]21` [Compound 4-7, (2S,3S,11bS)-9-(2,2-difluoropropoxy)-3-(2,2-dimethylpropyl)-10-methoxy-1H,2H,3H,4H,6H,7H,11bH-pyrido[2,1-a]isoquinolin-2-ol]: the inhibitory constant (Ki) came to 539 nM.

On to `COc1cc2c(cc1OCC(F)(F)F)CCN1C[C@H](CC(C)(C)C)[C@@H](O)C[C@@H]21` [Compound 4-8, (2S,3S,11bS)-3-(2,2-dimethylpropyl)-10-methoxy-9-(2,2,2-trifluoroethoxy)-1H,2H,3H,4H,6H,7H,11bH-pyrido[2,1-a]isoquinolin-2-ol], for which the Ki was found to be 597 nM.

Take `CNC(=O)COc1cc2c(cc1OC)[C@H]1C[C@@H](O)[C@H](CC(C)(C)C)CN1CC2` [Compound 4-35, 2-{[(2R,3R,11bR)-3-(2,2-dimethylpropyl)-2-hydroxy-10-methoxy-1H,2H,3H,4H,6H,7H,11bH-pyrido[2,1-a]isoquinolin-9-yl]oxy}-N-methylacetamide]: the inhibition constant (Ki) was > 10000 nM.

As for `COc1cc2c(cc1OCC(F)F)CCN1C[C@H](CC(C)(C)C)[C@H](O)C[C@@H]21` [Compound 4-2, (2R,3S,11bS)-9-(2,2-difluoroethoxy)-3-(2,2-dimethylpropyl)-10-methoxy-1H,2H,3H,4H,6H,7H,11bH-pyrido[2,1-a]isoquinolin-2-ol], the inhibition constant (Ki) was 467 nM.

`COc1cc2c(cc1OCC(F)F)CCN1C[C@H](CC(C)(C)C)[C@@H](O)C[C@@H]21` [Compound 4-6, (2S,3S,11bS)-9-(2,2-difluoroethoxy)-3-(2,2-dimethylpropyl)-10-methoxy-1H,2H,3H,4H,6H,7H,11bH-pyrido[2,1-a]isoquinolin-2-ol]: the Ki is 860 nM.

Consider `CCC(O)(CC)COc1cc2c(cc1OC)[C@H]1C[C@@H](O)[C@H](CC(C)(C)C)CN1CC2` [Compound 4-93, (2R,3R,11bR)-3-(2,2-dimethylpropyl)-9-(2-ethyl-2-hydroxybutoxy)-10-methoxy-1H,2H,3H,4H,6H,7H,11bH-pyrido[2,1-a]isoquinolin-2-ol], for which the Ki was determined as 281 nM.

With `COC[C@H](O)COc1cc2c(cc1OC)[C@H]1C[C@@H](O)[C@H](CC(C)(C)C)CN1CC2` [Compound 4-48, (2R,3R,11bR)-3-(2,2-dimethylpropyl)-9-[(2S)-2-hydroxy-3-methoxypropoxy]-10-methoxy-1H,2H,3H,4H,6H,7H,11bH-pyrido[2,1-a]isoquinolin-2-ol], the Ki stood at 313 nM.

`COc1cc2c(cc1OC)[C@@H]1C[C@H](O)[C@@H](CC(C)(C)C)CN1CC2` [Compound 5-3, (2S,3S,11bS)-3-(2,2-dimethylpropyl)-9,10-dimethoxy-1H,2H,3H,4H,6H,7H,11bH-pyrido[2,1-a]isoquinolin-2-ol]: the Ki was 700 nM.

For `COc1cc2c(cc1OCCOC1COC1)CCN1C[C@@H](CC(C)(C)C)[C@H](O)C[C@H]21` [Compound 4-20, (2R,3R,11bR)-3-(2,2-dimethylpropyl)-10-methoxy-9-[2-(oxetan-3-yloxy)ethoxy]-1H,2H,3H,4H,6H,7H,11bH-pyrido[2,1-a]isoquinolin-2-ol], the inhibitory constant (Ki) was found to be 336 nM.

On to `COc1cc2c(cc1OC)[C@@H]1C[C@@H](O)[C@@H](CC(C)(C)C)CN1CC2` [Compound 5-4, (2R,3S,11bS)-3-(2,2-dimethylpropyl)-9,10-dimethoxy-1H,2H,3H,4H,6H,7H,11bH-pyrido[2,1-a]isoquinolin-2-ol], for which the Ki was > 10000 nM.

As to `COc1cc2c(cc1OCC1CCS(=O)(=O)CC1)CCN1C[C@@H](CC(C)(C)C)[C@H](O)C[C@H]21` [Compound 4-97, 4-({[(2R,3R,11bR)-3-(2,2-dimethylpropyl)-2-hydroxy-10-methoxy-1H,2H,3H,4H,6H,7H,11bH-pyrido[2,1-a]isoquinolin-9-yl]oxy}methyl)-1λ^6-thiane-1,1-dione], the Ki was > 10000 nM.

Take `COc1cc2c(cc1OC(C)C(F)(F)F)CCN1C[C@@H](CC(C)(C)C)[C@H](O)C[C@H]21` (stereo partly drawn) [Compound 4-39, (2R,3R,11bR)-3-(2,2-dimethylpropyl)-10-methoxy-9-[(1,1,1-trifluoropropan-2-yl)oxy]-1H,2H,3H,4H,6H,7H,11bH-pyrido[2,1-a]isoquinolin-2-ol]: the inhibition constant (Ki) was 12 nM.

`COc1cc2c(cc1OCC(C)(F)F)CCN1C[C@H](CC(C)(C)C)[C@H](O)C[C@@H]21` [Compound 4-3, (2R,3S,11bS)-9-(2,2-difluoropropoxy)-3-(2,2-dimethylpropyl)-10-methoxy-1H,2H,3H,4H,6H,7H,11bH-pyrido[2,1-a]isoquinolin-2-ol]: the inhibitory constant (Ki) was 152 nM.

Regarding `COc1cc2c(cc1OCCCS(C)(=O)=O)CCN1C[C@@H](CC(C)(C)C)[C@H](O)C[C@H]21` [Compound 4-85, (2R,3R,11bR)-3-(2,2-dimethylpropyl)-9-(3-methanesulfonylpropoxy)-10-methoxy-1H,2H,3H,4H,6H,7H,11bH-pyrido[2,1-a]isoquinolin-2-ol], the Ki was 276 nM.

Consider `COc1cc2c(cc1OC[C@@H]1CCO1)CCN1C[C@@H](CC(C)(C)C)[C@H](O)C[C@H]21` [Compound 4-21, (2R,3R,11bR)-3-(2,2-dimethylpropyl)-10-methoxy-9-[(2S)-oxetan-2-ylmethoxy]-1H,2H,3H,4H,6H,7H,11bH-pyrido[2,1-a]isoquinolin-2-ol], for which the inhibition constant (Ki) worked out at 28 nM.

As for `COc1cc2c(cc1OCC1(OS(C)(=O)=O)CC1)CCN1C[C@@H](CC(C)(C)C)[C@H](O)C[C@H]21` [Compound 4-94, 1-({[(2R,3R,11bR)-3-(2,2-dimethylpropyl)-2-hydroxy-10-methoxy-1H,2H,3H,4H,6H,7H,11bH-pyrido[2,1-a]isoquinolin-9-yl]oxy}methyl)cyclopropyl methanesulfonate], the Ki stood at 387 nM.

As for `COc1cc2c(cc1OCc1ccc(C(F)(F)F)cc1)CCN1C[C@@H](CC(C)(C)C)[C@H](O)C[C@H]21` [Compound 4-81, (2R,3R,11bR)-3-(2,2-dimethylpropyl)-10-methoxy-9-{[4-(trifluoro-methyl)phenyl]methoxy}-1H,2H,3H,4H,6H,7H,11bH-pyrido[2,1-a]isoquinolin-2-ol], the inhibitory constant (Ki) was determined as 177 nM.
